Test results reported in the NIST ThermoML archive (doi:10.1016/j.jct.2007.06.020).
Numbers after ± are expanded uncertainties.

Experiment: molar enthalpy of vaporization or sublimation
Conditions: 298.15 K; Liquid; Calvet microcalorimetry

Compound	molar enthalpy [kJ/mol]
N#Cc1cccs1 [2-cyanothiophene]	49.5 ± 2.2
N#CCc1cccs1 [2-thiopheneacetonitrile]	60.5 ± 2.6
Cc1ccsc1C#N [3-methylthiophene-2-carbonitrile]	54.4 ± 2.4
N#CCc1ccsc1 [3-thiopheneacetonitrile]	61.1 ± 2.6
N#Cc1ccsc1 [3-thiophenecarbonitrile]	51.6 ± 3.8
